Experimental data published in patent US20140135310A1, “SULPHONAMIDE DERIVATIVES OF ALICYCLIC AMINES FOR THE TREATMENT OF CENTRAL NERVOUS SYSTEM DISEASES” (Adamed Sp. z o.o., priority 2011, published 2014).

Key:
[1] = biological target: T1, α2C adrenergic receptors (Homo sapiens, UniProt P18825); assay: Radioligand binding assay, adrenergic α2C receptors; conditions: test compound 1×10^−6 M
T1 construct: expressed in transfected cells; host or cells: CHO cells
T1 sequence (P18825 1-462): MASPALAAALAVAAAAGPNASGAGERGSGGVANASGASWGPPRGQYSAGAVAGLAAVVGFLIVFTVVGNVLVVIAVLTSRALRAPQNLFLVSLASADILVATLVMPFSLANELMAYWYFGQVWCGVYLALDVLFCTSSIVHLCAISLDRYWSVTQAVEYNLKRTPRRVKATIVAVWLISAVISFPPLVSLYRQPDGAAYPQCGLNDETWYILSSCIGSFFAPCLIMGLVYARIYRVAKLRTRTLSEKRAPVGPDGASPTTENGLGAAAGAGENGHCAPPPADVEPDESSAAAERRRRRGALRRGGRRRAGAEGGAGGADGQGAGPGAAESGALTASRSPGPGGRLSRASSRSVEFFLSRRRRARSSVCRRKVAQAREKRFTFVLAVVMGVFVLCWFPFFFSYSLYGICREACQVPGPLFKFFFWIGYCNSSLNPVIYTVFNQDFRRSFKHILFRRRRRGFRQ
How it was run: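 Competitive radioligand binding at human α2C receptors, with scintillation counting. Nonspecific binding defined with excess unlabelled ligand; results given as % inhibition of control specific binding. IC50 from Hill-equation fits of competition curves; Ki via Cheng-Prusoff using radioligand concentration and Scatchard-derived KD.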

[2] = biological target: T2, 5-HT7 receptor (Homo sapiens, UniProt P34969); assay: Radioligand binding assay, serotoninergic 5-HT7 receptors; conditions: binding assay result in %, Table 5a;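 note: test compound at 1 µM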
T2 construct: purchased PerkinElmer
T2 sequence (P34969 whole entry): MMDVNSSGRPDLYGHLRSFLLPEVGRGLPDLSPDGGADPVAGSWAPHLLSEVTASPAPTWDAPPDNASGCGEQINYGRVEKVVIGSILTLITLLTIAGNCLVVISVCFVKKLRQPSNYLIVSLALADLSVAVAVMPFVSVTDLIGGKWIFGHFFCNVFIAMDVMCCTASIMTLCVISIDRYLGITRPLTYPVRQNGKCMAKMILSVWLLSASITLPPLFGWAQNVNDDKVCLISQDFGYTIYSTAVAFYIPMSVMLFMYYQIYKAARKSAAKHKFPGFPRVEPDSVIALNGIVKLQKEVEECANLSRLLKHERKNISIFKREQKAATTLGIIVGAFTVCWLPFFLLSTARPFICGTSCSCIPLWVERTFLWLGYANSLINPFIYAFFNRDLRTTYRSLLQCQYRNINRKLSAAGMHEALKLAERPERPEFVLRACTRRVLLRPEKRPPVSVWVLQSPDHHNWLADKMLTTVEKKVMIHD
How it was run: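 Competition binding at human 5-HT7 receptors with a radioligand, detected by scintillation counting; non-specific binding was defined with excess unlabelled ligand. IC50 came from Hill-equation fits of competition curves, and Ki from Cheng–Prusoff using radioligand concentration and Scatchard-derived KD.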

[3] = biological target: T3, serotonin transporter (SERT) (Homo sapiens, UniProt P31645); assay: Radioligand binding assay, serotonin transporter (SERT)
T3 construct: expressed in transfected cells; host or cells: CHO cells
T3 sequence (P31645 whole entry): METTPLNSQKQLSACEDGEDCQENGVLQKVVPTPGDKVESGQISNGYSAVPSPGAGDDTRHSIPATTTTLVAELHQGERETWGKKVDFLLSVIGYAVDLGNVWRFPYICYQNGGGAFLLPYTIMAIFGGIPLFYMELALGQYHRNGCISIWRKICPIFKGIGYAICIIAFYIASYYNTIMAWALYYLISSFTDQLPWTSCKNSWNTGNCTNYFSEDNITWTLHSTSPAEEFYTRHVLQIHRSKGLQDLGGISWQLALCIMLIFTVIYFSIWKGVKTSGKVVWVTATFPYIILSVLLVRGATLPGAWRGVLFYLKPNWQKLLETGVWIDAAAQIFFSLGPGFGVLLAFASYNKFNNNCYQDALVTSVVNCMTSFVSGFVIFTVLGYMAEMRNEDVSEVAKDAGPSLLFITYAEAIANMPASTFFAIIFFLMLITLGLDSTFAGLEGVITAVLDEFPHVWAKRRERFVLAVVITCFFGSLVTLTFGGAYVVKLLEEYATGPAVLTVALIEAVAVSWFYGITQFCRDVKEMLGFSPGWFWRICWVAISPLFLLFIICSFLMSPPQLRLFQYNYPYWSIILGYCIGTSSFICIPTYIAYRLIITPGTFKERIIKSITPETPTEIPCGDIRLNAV
How it was run: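 Radioligand competition binding with scintillation detection; specific binding is total minus binding under excess unlabelled ligand. Reported as % of control specific binding or % inhibition; IC50 from Hill-equation non-linear regression of competition curves, and Ki via Cheng-Prusoff using radioligand concentration and Scatchard-derived KD.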

[4] = biological target: T4, receptors D4.4 (Homo sapiens, UniProt P21917); assay: Radioligand binding assay, dopaminergic D4 (D4.4) receptors; conditions: test compound 1×10^−6 M
T4 sequence (P21917 1-419): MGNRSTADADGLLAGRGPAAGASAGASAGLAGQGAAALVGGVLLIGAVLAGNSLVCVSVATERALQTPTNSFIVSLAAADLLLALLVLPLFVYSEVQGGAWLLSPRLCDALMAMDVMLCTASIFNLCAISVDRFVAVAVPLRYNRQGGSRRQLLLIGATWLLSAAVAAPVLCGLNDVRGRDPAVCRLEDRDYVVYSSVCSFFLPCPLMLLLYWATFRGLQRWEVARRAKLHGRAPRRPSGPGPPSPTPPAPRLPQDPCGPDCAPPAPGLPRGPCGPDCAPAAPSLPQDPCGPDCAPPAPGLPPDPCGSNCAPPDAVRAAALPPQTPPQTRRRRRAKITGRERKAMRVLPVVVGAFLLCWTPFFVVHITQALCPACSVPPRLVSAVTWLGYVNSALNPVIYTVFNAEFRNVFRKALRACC
How it was run: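 Competition radioligand binding at human D2, D3 and D4.4 receptors, detected by scintillation counting; nonspecific binding defined with excess unlabelled ligand. Results as percent inhibition of control specific binding; IC50 by Hill-equation nonlinear regression; Ki via Cheng-Prusoff, with radioligand KD from Scatchard plot.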

[5] = biological target: 5-HT6 serotoninergic receptors (Homo sapiens, UniProt P50406); assay: Cellular functional assay, 5-HT6 serotoninergic receptors; format: cell-based; conditions: for 5-HT6 ag [%]: agonist mode, percent of control specific agonist response
Sequence of 5-HT6 serotoninergic receptors (P50406 whole entry): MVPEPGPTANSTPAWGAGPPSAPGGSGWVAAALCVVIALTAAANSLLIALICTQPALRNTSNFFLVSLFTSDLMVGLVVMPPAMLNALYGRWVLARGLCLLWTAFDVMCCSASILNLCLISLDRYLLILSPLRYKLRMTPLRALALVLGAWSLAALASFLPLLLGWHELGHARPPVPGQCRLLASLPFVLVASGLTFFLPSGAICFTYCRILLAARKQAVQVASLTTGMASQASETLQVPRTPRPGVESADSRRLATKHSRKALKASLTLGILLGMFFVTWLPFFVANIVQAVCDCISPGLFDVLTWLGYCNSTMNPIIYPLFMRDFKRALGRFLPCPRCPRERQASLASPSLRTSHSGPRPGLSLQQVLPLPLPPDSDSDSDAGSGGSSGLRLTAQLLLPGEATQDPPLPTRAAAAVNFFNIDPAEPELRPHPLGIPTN
Experimental: The results are expressed as a percent of control specific agonist response ((measured specific response/control specific agonist response)×100) obtained in the presence of the test compounds.
The EC50 values (concentration producing a half-maximal specific response) and IC50 values (concentration causing a half-maximal inhibition of the control specific agonist response) were determined by non-linear regression analysis of the concentration-response curves generated with mean replicate values using Hill equation curve fitting (Y=D+[(A−D)/(1+(C/C50)nH)], where Y=specific response, D=minimum specific response, A=maximum specific response, C=compound concentration, and C50=EC50 or IC50, and nH=slope factor). This analysis was performed using a software developed at Cerep (Hill software) and validated by comparison with data generated by the commercial software SigmaPlot® 4.0 for Windows® (© 1997 by SPSS Inc.).
For the antagonists, the apparent dissociation constants (Kb) were calculated using the modified Cheng Prusoff equation (Kb=IC50/(1+(A/EC50A)), where A=concentration of reference agonist in the assay, and EC50A=EC50 value of the reference agonist).

[6] = biological target: T5, 5-HT6 receptor (Homo sapiens, UniProt P50406); assay: Radioligand binding assay, serotoninergic 5-HT6 receptors; conditions: for Ki: read-out: Inhibition constants Ki, 5-HT6;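 for 5-HT6 [%]: test compound at 1 µM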
T5 construct: purchased PerkinElmer
T5 sequence (P50406 whole entry): as above
How it was run: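 Values are Ki from Cheng–Prusoff, taking IC50 from Hill nonlinear regression of competition curves and KD from a Scatchard plot. Specific binding was total minus binding with excess unlabelled ligand. Radioligand displacement was detected by scintillation counting, and data were also reported as percent of control specific binding.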

[7] = biological target: D2 dopaminergic receptors (Homo sapiens, UniProt P14416); assay: Cellular functional assay, D2 dopaminergic receptors; format: cell-based; conditions: for D2 ag [%]: agonism, percent of control specific agonist response (3 μM dopamine for control); for D2 ag [%] / D2 antag [%]: D2S (h), HEK-293 cells; for D2 antag [%]: antagonism, stimulus dopamine (30 nM)
Sequence of D2 dopaminergic receptors (P14416 whole entry): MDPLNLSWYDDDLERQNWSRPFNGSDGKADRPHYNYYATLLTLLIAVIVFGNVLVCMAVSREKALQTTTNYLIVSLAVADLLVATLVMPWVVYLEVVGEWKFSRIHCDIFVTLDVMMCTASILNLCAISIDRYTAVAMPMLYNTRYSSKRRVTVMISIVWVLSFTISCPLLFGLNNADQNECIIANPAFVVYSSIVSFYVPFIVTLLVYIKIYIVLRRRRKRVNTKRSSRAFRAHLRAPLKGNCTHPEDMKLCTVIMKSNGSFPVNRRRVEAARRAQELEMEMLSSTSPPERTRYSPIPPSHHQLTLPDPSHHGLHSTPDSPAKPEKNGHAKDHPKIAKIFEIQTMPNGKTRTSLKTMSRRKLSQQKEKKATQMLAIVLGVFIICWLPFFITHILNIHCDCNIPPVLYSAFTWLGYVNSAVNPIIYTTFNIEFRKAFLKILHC
How it was run: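 Responses expressed as percent of control specific agonist response; EC50 or IC50 from Hill-equation nonlinear fits of mean replicate concentration-response curves. For antagonists, Kb derived by modified Cheng-Prusoff using reference agonist concentration and its EC50.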

[8] = binding assay, test compound 1×10^−6 M
[9] = binding assay result in %, Table 5a

Compound	inhibition at 1 µM [1]	inhibition at 1 µM [2]	inhibition at 1 µM [3, 8]	inhibition at 1 µM [4]	5-HT6 ag [%] [5]	Kb ([5]; apparent dissociation constant, modified Cheng Prusoff equation, read-out: 5-HT6 antag Kb)	inhibition at 1 µM [6, 9]	Ki [6]	D2 ag [%] [7]	D2 antag [%] [7]	Kb ([7]; apparent dissociation constant, modified Cheng Prusoff equation, read-out: D2 antag Kb)	Ki ([3]; read-out: Inhibition constants Ki for SERT, SERT)	α2C [%] [1]	5-HT7 [%] [2]	SERT [%] [3, 8]	D4.4 [%] [4]	5-HT6 antag [%] ([5]; antagonist mode)	5-HT6 [%] [6, 9]
O=S(=O)(N[C@@H]1CCN(CCCc2noc3cc(F)ccc23)C1)c1cc2ccccc2s1 [Compound 196, N-[(3R)-1-[3-(6-Fluoro-1,2-benzoxazol-3-yl)propyl]pyrrolidin-3-yl]benzo-thiophene-2-sulphonamide]	89%	101%	42%	78%	−2%	38 nM	99%	6.4 nM	0%	95%	10 nM							
Cc1c(S(=O)(=O)N[C@@H]2CCN(CCCc3noc4cc(F)ccc34)C2)sc2ccc(Cl)cc12 [Compound 204, 5-Chloro-N-[(3R)-1-[3-(6-fluoro-1,2-benzoxazol-3-yl)propyl]pyrrolidin-3-yl]-3-methyl-benzothiophene-2-sulphonamide]	89%	87%	70%	71%	−1%		97%	6.9 nM	1%	86%								
Cc1cc(S(=O)(=O)NC2CCN(CCCc3noc4cc(F)ccc34)C2)c(C)s1 (stereo not drawn) [Compound 221, N-[1-[3-(6-Fluoro-1,2-benzoxazol-3-yl)propyl]pyrrolidin-3-yl]-2,5-dimethyl-thiophene-3-sulphonamide]	88%	95%	67%	93%	−4%		92%		14%	97%								
COc1ccc2cc(S(=O)(=O)N[C@@H]3CCN(CCCc4noc5cc(F)ccc45)C3)ccc2c1 [Compound 230, N-[(3R)-1-[3-(6-Fluoro-1,2-benzoxazol-3-yl)propyl]pyrrolidin-3-yl]-6-methoxy-naphthalene-2-sulphonamide]	92%	87%	75%	88%	−1%		96%	15 nM	3%	94%								
O=S(=O)(N[C@H]1CCN(CCCc2noc3cc(F)ccc23)C1)c1cc2ccccc2o1 [Compound 215, N-[(3S)-1-[3-(6-Fluoro-1,2-benzoxazol-3-yl)propyl]pyrrolidin-3-yl]benzo-furan-2-sulphonamide]	66%	98%	35%	88%	−2%		93%	21 nM	6%	91%								
Cc1ccc2sc(S(=O)(=O)N[C@@H]3CCN(CCCc4noc5cc(F)ccc45)C3)cc2c1 [Compound 228, N-[(3R)-1-[3-(6-Fluoro-1,2-benzoxazol-3-yl)propyl]pyrrolidin-3-yl]-5-methyl-benzothiophene-2-sulphonamide]	95%	92%	61%	68%	−2%		100%	14 nM	−1%	94%								
O=S(=O)(NCC1CCN(CCCc2noc3cc(F)ccc23)C1)c1ccc2ccccc2c1 (stereo not drawn) [Compound 240, N-[[1-[3-(6-Fluoro-1,2-benzoxazol-3-yl)propyl]pyrrolidin-3-yl]methyl]-naphthalene-2-sulphonamide]	84%	90%	43%	57%	4%		93%		3%	64%								
O=S(=O)(NC1CCN(CCCc2c[nH]c3ccc(F)cc23)C1)c1ccc2ccccc2c1 (stereo not drawn) [Compound 80, N-[1-[3-(5-Fluoro-1H-indol-3-yl)propyl]pyrrolidin-3-yl]naphthalene-2-sulphonamide]	88%	93%	104%	91%	9%		96%	15 nM	33%	78%		0.5 nM						
N-[1-[3-(6-Fluoro-1,2-benzoxazol-3-yl)propyl]pyrrolidin-3-yl]-1-methyl-imidazole-4-sulphonamide [Compound 217]					−6%				10%	79%			96%	97%	90%	72%	85%	98%
O=S(=O)(N[C@H]1CCN(CCCc2noc3cc(F)ccc23)C1)c1csc2ccccc12 [Compound 225, N-[(3S)-1-[3-(6-Fluoro-1,2-benzoxazol-3-yl)propyl]pyrrolidin-3-yl]benzothiophene-3-sulphonamide]	80%	100%	77%	91%	1%		99%	1.6 nM	7%	52%								
Cc1c(S(=O)(=O)NC2CCN(CCCc3noc4cc(F)ccc34)C2)sc2ccc(F)cc12 (stereo not drawn) [Compound 28, 5-Fluoro-N-[1-[3-(6-fluoro-1,2-benzoxazol-3-yl)propyl]pyrrolidin-3-yl]-3-methyl-benzothiophene-2-sulphonamide]	93%	94%	54%	75%	−1%		96%		1%	87%								
